# Measurements: PubChem BioAssay AID1275 (Emory University Molecular Libraries Screening Center, 2008)
# pIC50: −log10 of the molar value. Values joined by “and” are separate entries in the source; they are usually repeats but may differ in a detail not shown here. Equal values may be shown once. Active and inactive are the calls of the source. The rule behind the calls is not given here.
# Molecular target: Neutrophil cytosol factor 1 (Homo sapiens) (UniProt P14598)
# Test: p47phox binding inhibitors, dose response, biochemical, NADPH oxidase regulatory subunit, fluorescence polarization (AID 1275)
# Conditions: p47phox binding inhibition
# Neutrophil cytosol factor 1 (Homo sapiens), sequence (P14598 whole entry, looked up): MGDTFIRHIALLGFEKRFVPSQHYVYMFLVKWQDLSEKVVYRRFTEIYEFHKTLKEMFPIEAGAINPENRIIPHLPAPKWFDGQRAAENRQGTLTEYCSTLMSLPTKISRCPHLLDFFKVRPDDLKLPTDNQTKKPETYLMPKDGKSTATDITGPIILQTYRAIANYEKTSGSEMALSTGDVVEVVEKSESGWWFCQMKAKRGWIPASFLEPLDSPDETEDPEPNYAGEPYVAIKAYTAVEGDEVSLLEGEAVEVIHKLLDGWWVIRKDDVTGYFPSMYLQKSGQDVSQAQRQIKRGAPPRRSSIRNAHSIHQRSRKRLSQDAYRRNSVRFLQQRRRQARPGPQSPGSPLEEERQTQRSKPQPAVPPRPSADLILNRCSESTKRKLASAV
SMILES,IC50,pIC50
O=C1Nc2ccccc2/C1=N/N=C/c1ccc(-c2ccc([N+](=O)[O-])cc2)o1,> 50 µM (inactive),
Cc1ccc(C(=O)C2=C(O)C(=O)N(Cc3ccccc3)C2c2cccnc2)o1 (stereo not given),> 50 µM (inactive),
COc1ccc(-c2cn[nH]c2-c2ccc(OCc3ccc([N+](=O)[O-])cc3)cc2O)cc1,> 50 µM (inactive),
C=CCNC(=S)N1CCN(CCN=CC2=C(O)CC(c3ccco3)CC2=O)CC1 (stereo not given),> 50 µM (inactive),
Cc1ccc(-n2c(O)c(/C=N/Nc3ccccc3)c(=O)[nH]c2=O)cc1C,> 50 µM (inactive),
CC1=C(C#N)c2nc(N)c(C#N)c(C)c2/C1=C\c1ccc(-c2ccccc2C(=O)O)o1,,4.57
O=C(N=Nc1c(O)[nH]c2ccc(Cl)cc12)c1cc(-c2cccs2)nc2ccccc12,> 50 µM (inactive),
Cc1cccc(NC(=O)Cn2c(O)c(N=NC(=O)c3ccccc3O)c3ccccc32)c1,> 50 µM (inactive),
Cc1ccc(/C=N/Nc2ccnc3cc(Cl)ccc23)c(C)c1,> 50 µM (inactive),
COCc1cc(C)nc(N/N=C/c2ccc(-c3ccc(Cl)cc3[N+](=O)[O-])o2)c1C#N,> 50 µM (inactive),
CCOC(=O)c1ccc(N2C(=O)CC(Nc3ccc(O)cc3)C2=O)cc1 (stereo not given),,4.62
Cc1cccc(N=Nc2c(C)c(C#N)c(O)[nH]c2=O)c1,> 50 µM (inactive),
CCOc1ccc2c(c1)C(c1cccs1)=NNC(c1cccnc1)=N2,> 50 µM (inactive),
O=c1[nH]c(O)c(/C=C2/C=CC(c3cc(Cl)ccc3Cl)=N2)c(=O)[nH]1,> 50 µM (inactive),
N#Cc1ccc(N/N=C/c2cn(-c3ccccc3)nc2-c2ccccc2)c([N+](=O)[O-])c1,> 50 µM (inactive),
CC1=NN(c2ccccc2)C(=O)/C1=C/C=C/c1ccc(N(C)C)cc1,> 50 µM (inactive),
C[c-]1[c-](C)[c-](C)[c-](C)[c-]1C.[Fe].c1cc2nccc(N3CCCC3)[c-]2c1 (stereo not given),> 50 µM (inactive),
N#CC1=C(N)OC2=C(CN(Cc3ccccc3)C/C2=C\c2cccnc2)C1c1cccnc1 (stereo not given),,5.46
Cc1ccc(NC(=O)Cn2c(O)c(N=NC(=O)c3cc4ccccc4cc3O)c3ccccc32)cc1,> 50 µM (inactive),
Oc1[nH]c(=S)sc1/C=C1\C(c2ccccc2)=Nc2ccccc21,inactive,
O=c1oc2ccccc2c(O)c1/C=C1\C=Nc2ccccc21,> 50 µM (inactive),
O=c1[nH]c(=S)[nH]c(O)c1N=Nc1ccc(-c2ccccc2)cc1[N+](=O)[O-],,5.09
CCOC(=O)C1=C(O)CSC1=Nc1ccc(Cl)cc1,> 50 µM (inactive),
O=[N+]([O-])c1ccc(N=Cc2c(O)ccc3ccccc23)cc1,,5.34
O=C(Cn1c(O)c(/C=C2\C=Nc3ccc(Br)cc32)sc1=O)N1CCCC1,> 50 µM (inactive),

SMILES,IC50,pIC50
CCOC(=O)C(=CNc1ccc(Oc2cccnc2)nc1)C(=O)OCC,> 50 µM (inactive),
COC(=O)c1cc(C(=O)OC)cc(N2C(=O)CC(NNC(=O)c3ccc(C)cc3)C2=O)c1 (stereo not given),> 50 µM (inactive),
O=C1OCC=C1NNC(=O)c1cccnc1,> 50 µM (inactive),
O=C(N=Nc1c(O)[nH]c2ccc(Br)cc12)c1cc(-c2cccs2)nc2ccccc12,> 50 µM (inactive),
C(=N\Nc1nc(Nc2ccccc2)nc(N2CCCCC2)n1)/c1ccco1,> 50 µM (inactive),
CCOc1ccc(C2CC(c3c(O)n(C)c(=O)n(C)c3=O)=NN2)cc1 (stereo not given),> 50 µM (inactive),
COc1ccc(N2C(=O)CNC2=S)cc1,> 50 µM (inactive),
Clc1ccc(/C=N/Nc2nc(Cl)nc3ccccc23)cc1,> 50 µM (inactive),
Cc1ccccc1NC(=O)Cn1c(O)c(N=NC(=O)c2ccccc2O)c2ccccc21,> 50 µM (inactive),
CSc1sc(C)cc1C1C(C#N)=C(N)N(c2cccnc2)C2=C1C(=O)CCC2 (stereo not given),> 50 µM (inactive),
CCc1cc2c(=O)nc3n(c2s1)Cc1ccccc1/C3=C(/O)c1ccccc1Cl,> 50 µM (inactive),
O=C1CCCC(O)=C1N=Nc1ccc(C(=O)O)cc1,> 50 µM (inactive),
Cn1c(O)c(/C=C2\N=c3ccccc3=C2CCNC(=S)NC2CC2)c(=O)n(C)c1=O,,4.85
CCOC(=O)C1=C(COc2ccc(C)cc2)NC(=O)NC1c1cc(C)ccc1C (stereo not given),> 50 µM (inactive),
CCN=C(Nc1ccc2c(c1)OCO2)SC1CC(=O)N(c2ccccc2F)C1=O (stereo not given),> 50 µM (inactive),
Cc1nc2ccccc2n2c(O)c(CC(=O)O)cc12,inactive,
N#CC(=C=[N-])c1nc2ccccc2nc1-[n+]1cccc(NC(=O)c2cccs2)c1,,4.83
CCOC(=O)/C(C)=C1\NC(C)(C)Cc2ccccc21,> 50 µM (inactive),
COc1cc(/C=N/NC(=O)c2ccc(CN3c4cccc5cccc(c45)S3(=O)=O)cc2)cc(OC)c1O,> 50 µM (inactive),
CC(C)Cc1ccc(/C(=N/O)C(=O)O)s1,> 50 µM (inactive),
Cc1cc2c(C)nc(N/N=C/c3ccc([N+](=O)[O-])cc3)nc2o1,> 50 µM (inactive),
N#CC(=C=[N-])c1nc2ccccc2nc1-[n+]1cccc(NC(=O)c2ccccc2)c1,> 50 µM (inactive) and 24.2 µM,
CCN(CC)c1ccc(/C=N/c2sc3c(c2C#N)C2CCN3CC2)c(O)c1,,5.16
C/C(=N\Nc1ccc(S(N)(=O)=O)cc1[N+](=O)[O-])c1ccc2c(c1)OCO2,> 50 µM (inactive),
COc1ccc(-c2cnnc(N/N=C/c3ccc(-c4ccc([N+](=O)[O-])cc4)o3)n2)cc1,> 50 µM (inactive),

SMILES,IC50,pIC50
CCOc1ccc(N/C=C/C(=O)c2ccc(C)cc2)c([N+](=O)[O-])c1,> 50 µM (inactive),
COc1ccc(C2C(C#N)=C(N)Oc3cc4c(cc32)OCO4)cc1 (stereo not given),> 50 µM (inactive),
CC(C)N1CC2=C(OC(N)=C(C#N)C2c2cccnc2)/C(=C/c2cccnc2)C1 (stereo not given),inactive,
CCOC(=O)C1=C(c2ccccc2)NC(N)=NC1c1ccc(OCc2ccc(C(=O)OC)cc2)cc1 (stereo not given),,5.16
C/C(N)=C(/C#N)C(=O)CSc1nnc(-c2ccc3c(c2)OCO3)o1,> 50 µM (inactive),
CC1(C)CC(=O)C2=C(C1)Nc1cc3c(cc1C2c1ccc2c(c1)OCO2)OCO3 (stereo not given),> 50 µM (inactive),
COc1ccc(C2C(C(=O)c3ccccc3)=C(C)Nc3nc4ccccc4n32)cc1OC (stereo not given),> 50 µM (inactive),
Cc1ccc(C(NC(=O)N2CCOCC2)=C(Cl)Cl)cc1F,> 50 µM (inactive),
CC(=O)N1C(=O)C2(C(C#N)=C(N)Oc3n[nH]c(-c4ccccn4)c32)c2ccccc21 (stereo not given),> 50 µM (inactive),
CCOc1ccc(N/C=C/C(=O)c2ccccc2)c([N+](=O)[O-])c1,> 50 µM (inactive),
CCOc1ccc(-n2c(SCC(=O)Nc3ccc(Br)cc3)nc3n[nH]c(C)c3c2=N)cc1,> 50 µM (inactive),
O=C(N=Nc1c(O)n(Cc2ccccc2)c2ccccc12)c1cc2ccccc2cc1O,> 50 µM (inactive),
N=C1CCC(=N)c2c1c(O)c1ccccc1c2O,,6.17
CN(C)c1ccnc2c[cH-]cc12.[Fe].c1ccc(-[c-]2[c-](-c3ccccc3)[c-](-c3ccccc3)[c-](-c3ccccc3)[c-]2-c2ccccc2)cc1 (stereo not given),,4.86 and 5.56
COc1nc(N/N=C/c2ccc(-c3cccc([N+](=O)[O-])c3)o2)nc(N2CCOCC2)n1,> 50 µM (inactive),
O=[N+]([O-])c1ccc(N/N=C\c2cccn2-c2ccccc2)nc1,> 50 µM (inactive),
Nc1cc(Cl)ccc1N1C(=O)CCC1=O,> 50 µM (inactive),
Cc1ccc(/C(CSc2nccn2-c2ncc(C(F)(F)F)cc2Cl)=N\O)cc1,> 50 µM (inactive),
O=C(N=Nc1c(O)n(C2OC(=O)c3ccccc32)c2ccccc12)c1ccco1 (stereo not given),> 50 µM (inactive),
CN(C)CC(C)(C)CN=Cc1c(O)[nH]c2ccccc12,> 50 µM (inactive),
CC1CCCCN1C(=O)C12CCC(C)(/C(=N/O)C1)C2(C)C (stereo not given),> 50 µM (inactive),
O=c1cnnc(N/N=C/c2c[nH]c3ccccc23)[nH]1,> 50 µM (inactive),
CCOC(=O)C1=C(c2ccccc2)NC(N)=NC1c1ccc(OCc2ccc(Cl)cc2)c(OC)c1 (stereo not given),,5.38
CCOC(=O)C1=C(O)c2ccccc2C(=O)/C1=C\c1ccc(CC)cc1,> 50 µM (inactive),
COc1ccc(N=C2O/C(=C/c3sc(=S)n(CC4CCCO4)c3O)N=C2C#N)cc1 (stereo not given),,4.79
